In US20230089368A1, “POLYAROMATIC UREA DERIVATIVES AND THEIR USE IN THE TREATMENT OF MUSCLE DISEASES” (ANAGENESIS BIOTECHNOLOGIES S.A.S., priority 2019, published 2023):

Key:
[1] = tested on: muscle progenitors (hMP) from DMD hiPSC or WT hiPSC; assay: Myotube assay: myogenic activity (total myotube area per well); format: cell-based, human; conditions: Homo sapiens, 72 h, myotube assay, compounds incubated 3 days; for Emax: read-out: MA (normalized Myotube Area, efficacy); for EC50: 10 points dose-response 1.5 nM to 30 μM, read-out: EC50 (myogenic activity, half-maximal generation of myotubes)
Experimental: An in vitro assay for assessing the efficacy of compounds for use in treating, ameliorating, delaying, curing and/or preventing a disease or condition associated with muscle cells and/or satellite cells is described in example 78. Herein, the generation of myotubes and satellite cells after adding a compound to a myotube assay workflow is assessed. Said myotube assay workflow is derived from wild-type or DMD human induced pluripotent stem cells (WT hiPSC or DMD hiPSC). Before the addition of said compound, the assay comprises satellite-like cells, but no significant amount of myotubes.
(§1) The efficacy of said compound for use in treating, ameliorating, delaying, curing and/or preventing a disease or condition associated with muscle cells and/or satellite cells is positively correlated with the generation of myotubes (i.e. the increase of the area occupied by myotubes on the assay) and/or satellite cells (i.e. the increase of the number of satellite cells) in the assay after adding said compound. The generation of myotubes by the addition of said compound is expressed as the EC50 value, the concentration of said compound that corresponds with the half-maximal generation of myotubes, and the MA (normalized myotube area) value, the normalized area occupied by generated myotubes on the assay. […] Since muscle cells are formed from myotubes during myogenesis, the generation of myotubes in the assay is a good indicator of the ability of said compound to induce the formation of functional muscle cells in vivo. The number of satellite cells is measured as the percentage of Pax7 positive cells, relative to the total number of cells in the assay, as shown in FIG. 3. The percentage of Pax7 is a good indicator of the ability of said compound to induce the formation of satellite cells which are able to play a role in muscle repair and regeneration in vivo.
(§2) DMD human induced pluripotent stem cells (hereafter “DMD hiPSC”), generated from the NORM-1 hiPSC WT cell line by gene editing, or WT human induced pluripotent stem cells (hereafter “WT hiPSC”), being NORM-1 hiPSC wt cell line, have been differentiated according to Chal et al. 2015, 2016, to produce muscle progenitors (hereafter “hMP”). The hMP population contains satellite-like cells (i.e Pax7-positive cells) and satellite cells' progenies (i.e. Myogenin-positive cells).
(§3) FIG. 1 provides an example of a Myotube assay workflow. At day 0, hMP are thawed and 3.1 million cells are plated into a T75-flask coated with hESC-qualified Matrigel™ (Corning) in SkGM proliferating medium (PromoCells), supplemented with 5 μM Y-27632 (Tocris Bioscience). On day 2, SkGM proliferating medium is refreshed. On day 4, hMP are harvested and transferred into a 384-well plate coated with collagen type I at a density of 3500 cells/well in a DMEM-based medium, containing 5% of knockout serum replacement (Gibco), 1% PenStrep (Gibco), 1% MEM NEAA (Gibco) and 0.1 mM 2-mercaptoethanol (Gibco) (hereafter “K5 medium”) and 5 μM Y-27632. Compounds to be tested are then added in the medium and incubated for 3 days at 37° C. On day 7, cells are fixed and immunostained. For example, myotubes (alpha-actinin staining) and satellite-like (Pax7 staining) cells can be analyzed for total myotube area per well or Pax7-positive cell quantification.
(§4) DMD hMP were put in the Myotube assay according to the workflow described in Example 2.1. In particular, compound (i) was added at concentrations ranging from 1.5 nM to 30 μM, starting from day 4. hMP were cultivated for three more days in presence of compound (i), then fixed and analyzed for quantification of total myotube area per well. Duplicates of each condition were averaged.
Qualitative scale: ++++: EC50<500 nM; +++: 500 nM≤EC50<1000 nM; ++: 1000 nM≤EC50<5000 nM; +: EC50≥5000 nM; +++: MA≥75%; ++: 50%≤MA<75%; +: 25%≤MA<50%.

[2] = tested on: satellite-like cells (Pax7-positive cells) in hMP; assay: Myotube assay: Pax7-positive (satellite-like) cell quantification; format: cell-based, human; design: key to Pax7% (pool of Pax7-positive cells) / Pax7: −: Depletes the pool of cells, while positively affects the myotubes; +: Maintains or increases the pool of cells, with at least 1 of the highest concentration known to be cytotoxic; ++: Maintains or increases the pool of cells, without any toxicity; conditions: myotube assay, compounds incubated 3 days
Source text: as §1, §2, §3
as §4, with “percentage” for “quantification”, “Pax7-positive cells and nuclei number.” for “total myotube area per well.”
(−): Depletes the pool of cells, while positively affects the myotubes; (+): Maintains or increases the pool of cells, with at least 1 of the highest concentration known to be cytotoxic; and (++) Maintains or increases the pool of cells, without any toxicity.

Structure (SMILES)	Emax [1] [%]	Pax7% (pool of Pax7-positive cells) [2]	EC50 [1] [nM]
Cc1cc(NC(=O)Nc2ccc(Oc3ccnc4[nH]c(=O)cnc34)cc2F)n(-c2ccccc2)n1 [(a), 1-(2-fluoro-4-((3-oxo-3,4-dihydropyrido[2,3-b]pyrazin-8-yl)oxy)phenyl)-3-(3-methyl-1-phenyl-1H-pyrazol-5-yl)urea]	25 to 50	++	–
CNC(=O)c1cc(Oc2cccc(NC(=O)Nc3cc(C(C)(C)C)nn3-c3ccccc3)c2)ccn1 [(aa), 4-(3-(3-(3-(tert-butyl)-1-phenyl-1H-pyrazol-5-yl)ureido)phenoxy)-N-methylpicolinamide]	50 to 75	++	1000 to 5000
CNC(=O)c1ccc(Oc2cccc(NC(=O)Nc3cc(C(C)(C)C)nn3-c3ccccc3)c2)cn1 [(ab), 5-(3-(3-(3-(tert-butyl)-1-phenyl-1H-pyrazol-5-yl)ureido)phenoxy)-N-methylpicolinamide]	50 to 75	++	–
CC(C)(C)c1cc(NC(=O)Nc2ccc(Oc3ccccc3)cc2F)n(-c2ccccc2)n1 [(ac), 1-(3-(tert-butyl)-1-phenyl-1H-pyrazol-5-yl)-3-(2-fluoro-4-phenoxyphenyl)urea]	50 to 75	++	–
CC(C)(C)c1cc(NC(=O)Nc2ccc(Oc3ccncc3)cc2F)n(-c2ccccc2)n1 [(ad), 1-(3-(tert-butyl)-1-phenyl-1H-pyrazol-5-yl)-3-(2-fluoro-4-(pyridin-4-yloxy)phenyl)urea]	25 to 50	++	–
CC(=O)Nc1cc(Oc2ccc(NC(=O)Nc3cc(C(C)(C)C)nn3-c3ccccc3)c(F)c2)ccn1 [(ae), N-(4-(4-(3-(3-(tert-butyl)-1-phenyl-1H-pyrazol-5-yl)ureido)-3-fluorophenoxy)pyridin-2-yl)acetamide]	50 to 75	+	–
CC(C)(C)c1cc(NC(=O)Nc2ccc(Oc3ccc(F)cc3)cc2F)n(-c2ccccc2)n1 [(af), 1-(3-(tert-butyl)-1-phenyl-1H-pyrazol-5-yl)-3-(2-fluoro-4-(4-fluorophenoxy)phenyl)urea]	25 to 50	++	–
CNC(=O)c1cc(Oc2ccc(NC(=O)Nc3cc(C(C)(C)C)nn3-c3ccc4ncccc4c3)c(SC)c2)ccn1 [(ag), 4-(4-(3-(3-(tert-butyl)-1-(quinolin-6-yl)-1H-pyrazol-5-yl)ureido)-3-(methylthio)phenoxy)-N-methylpicolinamide]	≥ 75	++	–
CSc1cc(Oc2ccnc3[nH]c(=O)cnc23)ccc1NC(=O)Nc1ncc(C(C)(C)C)s1 [(ah), 1-(5-(tert-butyl)thiazol-2-yl)-3-(2-(methylthio)-4-((3-oxo-3,4-dihydropyrido[2,3-b]pyrazin-8-yl)oxy)phenyl)urea]	≥ 75	++	–
CNC(=O)c1cncc(Oc2ccc(NC(=O)Nc3cc(C(C)(C)C)nn3-c3ccccc3)c(SC)c2)c1 [(ai), 5-(4-(3-(3-(tert-butyl)-1-phenyl-1H-pyrazol-5-yl)ureido)-3-(methylthio)phenoxy)-N-methylnicotinamide]	50 to 75	++	–
COc1ccc(-n2nc(C(C)(C)C)cc2NC(=O)Nc2ccc(Oc3ccnc4[nH]c(=O)cnc34)cc2SC)cc1 [(aj), 1-(3-(tert-butyl)-1-(4-methoxyphenyl)-1H-pyrazol-5-yl)-3-(2-(methylthio)-4-((3-oxo-3,4-dihydropyrido[2,3-b]pyrazin-8-yl)oxy)phenyl)urea]	≥ 75	++	500 to 1000
CC(C)(C)c1cc(NC(=O)Nc2ccc(Oc3ccnc4[nH]c(=O)cnc34)cc2Cl)n(-c2ccccc2)n1 [(ak), 1-(3-(tert-butyl)-1-phenyl-1H-pyrazol-5-yl)-3-(2-chloro-4-((3-oxo-3,4-dihydropyrido[2,3-b]pyrazin-8-yl)oxy)phenyl)urea]	≥ 75	+	–
Cc1cc(Oc2ccnc3[nH]c(=O)cnc23)ccc1NC(=O)Nc1cc(C(C)(C)C)nn1-c1ccccc1 [(al), 1-(3-(tert-butyl)-1-phenyl-1H-pyrazol-5-yl)-3-(2-methyl-4-((3-oxo-3,4-dihydropyrido[2,3-b]pyrazin-8-yl)oxy)phenyl)urea]	≥ 75	++	–
CCSc1cc(Oc2ccnc3[nH]c(=O)cnc23)ccc1NC(=O)Nc1cc(C(C)(C)C)nn1-c1ccccc1 [(am), 1-(3-(tert-butyl)-1-phenyl-1H-pyrazol-5-yl)-3-(2-(ethylthio)-4-((3-oxo-3,4-dihydropyrido[2,3-b]pyrazin-8-yl)oxy)phenyl)urea]	≥ 75	++	–
CSc1cc(Oc2ccnc3c2CCC(=O)N3)ccc1NC(=O)Nc1cc(C(C)(C)C)nn1-c1ccccc1 [(an), 1-(3-(tert-butyl)-1-phenyl-1H-pyrazol-5-yl)-3-(2-(methylthio)-4-((7-oxo-5,6,7,8-tetrahydro-1,8-naphthyridin-4-yl)oxy)phenyl)urea]	≥ 75	++	–
CSc1cc(Oc2ccnc3[nH]c(=O)cnc23)ccc1NC(=O)Nc1cc(C(C)(C)C)nn1-c1ccc(Cl)cc1 [(ao), 1-(3-(tert-butyl)-1-(4-chlorophenyl)-1H-pyrazol-5-yl)-3-(2-(methylthio)-4-((3-oxo-3,4-dihydropyrido[2,3-b]pyrazin-8-yl)oxy)phenyl)urea]	≥ 75	++	–
CNC(=O)c1ccc(Oc2ccc(NC(=O)Nc3cc(C(C)(C)C)nn3-c3ccccc3)c(SC)c2)cn1 [(ap), 5-(4-(3-(3-(tert-butyl)-1-phenyl-1H-pyrazol-5-yl)ureido)-3-(methylthio)phenoxy)-N-methylpicolinamide]	25 to 50	++	–
CSc1cc(Oc2ccnc(NC(C)=O)c2)ccc1NC(=O)Nc1cc(C(C)(C)C)nn1-c1ccccc1 [(aq), N-(4-(4-(3-(3-(tert-butyl)-1-phenyl-1H-pyrazol-5-yl)ureido)-3-(methylthio)phenoxy)pyridin-2-yl)acetamide]	≥ 75	+	–
CSc1cc(Oc2ccnc3[nH]c(=O)cnc23)ccc1NC(=O)Nc1cc(C(C)(C)C)nn1-c1ccccn1 [(ar), 1-(3-(tert-butyl)-1-(pyridin-2-yl)-1H-pyrazol-5-yl)-3-(2-(methylthio)-4-((3-oxo-3,4-dihydropyrido[2,3-b]pyrazin-8-yl)oxy)phenyl)urea]	≥ 75	++	–
CSc1cc(Oc2ccnc3[nH]c(=O)cnc23)ccc1NC(=O)Nc1cc(C(C)(C)C)nn1-c1cccc(Cl)c1 [(as), 1-(3-(tert-butyl)-1-(3-chlorophenyl)-1H-pyrazol-5-yl)-3-(2-(methylthio)-4-((3-oxo-3,4-dihydropyrido[2,3-b]pyrazin-8-yl)oxy)phenyl)urea]	≥ 75	+	–
